Reference: ChEMBL document CHEMBL3271973, “Synthesis and biological activities of 5-trifluoromethyl-5'-azido-2',5'-dideoxyuridine and 5-trifluoromethyl-5'-amino-2',5'-dideoxyuridine” (J Med Chem, 1976)
Calls of active or inactive are those of the source. No cut-off for these calls is given here.

Tests used:
[1] = Antiviral activity against HSV1 CL-101 infected in African green monkey Vero cells assessed as reduction of viral titer at 200 uM after 40 hrs; format: functional, Herpes simplex virus (type 1 / strain CL101)
Sarcoma-180 = experiment: Cytotoxicity against mouse Sarcoma 180 cells after 1 to 3 days by coulter counter analysis; format: functional, cell-based
[2] = Therapeutic index, ratio of cytotoxicity against African green monkey Vero cells to antiviral activity against HSV1 CL-101; format: cell-based; conditions: read-out: TI
Vero = experiment: Cytotoxicity against African green monkey Vero cells at 1 uM after 3 days by haemocytometer analysis; format: cell-based; conditions: chlorocebus sabaeus, 72 h
[3] = Antiviral activity against HSV1 CL-101 infected in African green monkey Vero cells assessed as reduction of viral titer at 50 uM after 40 hrs; format: functional, Herpes simplex virus (type 1 / strain CL101)

| SMILES | Activity [1] | Activity (Sarcoma-180) | selectivity ratio [2] | Activity (Vero) | Activity [3] [×10⁵ PFU] |
| --- | --- | --- | --- | --- | --- |
| [N-]=[N+]=NC[C@H]1O[C@@H](n2cc(C(F)(F)F)c(=O)[nH]c2=O)C[C@@H]1O | 1.7 ×10⁶ PFU | Active |  |  |  |
| NC[C@H]1O[C@@H](n2cc(C(F)(F)F)c(=O)[nH]c2=O)C[C@@H]1O | 1 ×10⁵ PFU | Active | 10 |  |  |
| O=c1[nH]c(=O)n([C@H]2C[C@H](O)[C@@H](CO)O2)cc1C(F)(F)F [TRIFLURIDINE] |  | Active |  | Toxic | 1.5 |
